Data: patent US11098055B2, “Ester ACC inhibitors and uses thereof” (Gilead Apollo, LLC, priority 2015, dated 2021)
pIC50: −log10 of the molar value. ≈ marks a conversion by molar mass, not a printed value. Where two headings read alike, the source gives them in different places.

How the values were obtained:
Rhizoctonia solani (Rs) = assay: Growth inhibition assay of fungal pathogens; format: cell-based; conditions: 48 h, read-out: Concentration at 90% Inhibition Rs
Procedure, shortened: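 Spores, or mycelial plugs for Rhizoctonia, in 17% V8 medium (¼ PDB for plugs) were exposed to compound at final 50, 10 and 2 ppm or 2, 0.4 and 0.08 ppm, with 2% DMSO. Growth was read by OD600 with blank subtraction plus visual rating; percent inhibition at 48 h is relative to 2% DMSO control.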

Botrtyis cinerea (Bc) = assay: Growth inhibition assay of fungal pathogens; format: cell-based; conditions: 48 h, read-out: Concentration at 90% Inhibition Bc
Procedure, shortened: (§1)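 Percent growth inhibition is scored at 48 h, by OD600 (blank-subtracted) and visual rating against the 2% DMSO control. Compounds were tested at final 50, 10, 2 ppm or 2, 0.4, 0.08 ppm on pathogen spores diluted in 17% V8 medium; mycelial plugs in ¼ PDB were used for Rhizoctonia.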

[1] = tested on: Phytophthora capsici (Pc); assay: Growth inhibition assay of fungal pathogens; format: cell-based; conditions: 48 h, read-out: Concentration at 90% Inhibition Pc
Procedure, shortened: as §1

Diplodia maydis (Dm) = assay: Growth inhibition assay of fungal pathogens; format: cell-based; conditions: Stenocarpella maydis, 48 h, read-out: Concentration at 90% Inhibition Dm
Procedure, shortened: as §1

[2] = tested on: Fusarium virguliforme (Fv); assay: Growth inhibition assay of fungal pathogens; format: cell-based; conditions: 48 h, read-out: Concentration at 90% Inhibition Fv
Procedure, shortened: as §1

[3] = tested on: Fusarium moniliforme (Fm); assay: Growth inhibition assay of fungal pathogens; format: cell-based; conditions: Fusarium verticillioides, 48 h, read-out: Concentration at 90% Inhibition Fm
Procedure, shortened: as §1

[4] = tested on: Collectotrichum graminicola (Cg); assay: Growth inhibition assay of fungal pathogens; format: cell-based; conditions: 48 h, read-out: Concentration at 90% Inhibition Cg
Procedure, shortened: as §1

Septoria tritici (St) = assay: Growth inhibition assay of fungal pathogens; format: cell-based; conditions: Zymoseptoria tritici, 48 h, read-out: Concentration at 90% Inhibition St
Procedure, shortened: as §1

hACC2 = hACC2 (Homo sapiens, UniProt O00763); assay: In vitro ACC2 inhibition assay (ADP-Glo), human ACC2; format: biochemical
Procedure, shortened: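 ADP-Glo luminescent ADP detection with 5 nM ACC2, 20 μM ATP, 20 μM acetyl-CoA, 12 mM NaHCO3, 2 mM DTT, 5% DMSO; compound (30 μM-0.00051 μM, 11 points) preincubated 15 min, reaction 60 min at room temperature. Percent inhibition against DMSO and positive controls; IC50 by four-parameter nonlinear fit.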

hACC2, sequence (O00763 whole entry): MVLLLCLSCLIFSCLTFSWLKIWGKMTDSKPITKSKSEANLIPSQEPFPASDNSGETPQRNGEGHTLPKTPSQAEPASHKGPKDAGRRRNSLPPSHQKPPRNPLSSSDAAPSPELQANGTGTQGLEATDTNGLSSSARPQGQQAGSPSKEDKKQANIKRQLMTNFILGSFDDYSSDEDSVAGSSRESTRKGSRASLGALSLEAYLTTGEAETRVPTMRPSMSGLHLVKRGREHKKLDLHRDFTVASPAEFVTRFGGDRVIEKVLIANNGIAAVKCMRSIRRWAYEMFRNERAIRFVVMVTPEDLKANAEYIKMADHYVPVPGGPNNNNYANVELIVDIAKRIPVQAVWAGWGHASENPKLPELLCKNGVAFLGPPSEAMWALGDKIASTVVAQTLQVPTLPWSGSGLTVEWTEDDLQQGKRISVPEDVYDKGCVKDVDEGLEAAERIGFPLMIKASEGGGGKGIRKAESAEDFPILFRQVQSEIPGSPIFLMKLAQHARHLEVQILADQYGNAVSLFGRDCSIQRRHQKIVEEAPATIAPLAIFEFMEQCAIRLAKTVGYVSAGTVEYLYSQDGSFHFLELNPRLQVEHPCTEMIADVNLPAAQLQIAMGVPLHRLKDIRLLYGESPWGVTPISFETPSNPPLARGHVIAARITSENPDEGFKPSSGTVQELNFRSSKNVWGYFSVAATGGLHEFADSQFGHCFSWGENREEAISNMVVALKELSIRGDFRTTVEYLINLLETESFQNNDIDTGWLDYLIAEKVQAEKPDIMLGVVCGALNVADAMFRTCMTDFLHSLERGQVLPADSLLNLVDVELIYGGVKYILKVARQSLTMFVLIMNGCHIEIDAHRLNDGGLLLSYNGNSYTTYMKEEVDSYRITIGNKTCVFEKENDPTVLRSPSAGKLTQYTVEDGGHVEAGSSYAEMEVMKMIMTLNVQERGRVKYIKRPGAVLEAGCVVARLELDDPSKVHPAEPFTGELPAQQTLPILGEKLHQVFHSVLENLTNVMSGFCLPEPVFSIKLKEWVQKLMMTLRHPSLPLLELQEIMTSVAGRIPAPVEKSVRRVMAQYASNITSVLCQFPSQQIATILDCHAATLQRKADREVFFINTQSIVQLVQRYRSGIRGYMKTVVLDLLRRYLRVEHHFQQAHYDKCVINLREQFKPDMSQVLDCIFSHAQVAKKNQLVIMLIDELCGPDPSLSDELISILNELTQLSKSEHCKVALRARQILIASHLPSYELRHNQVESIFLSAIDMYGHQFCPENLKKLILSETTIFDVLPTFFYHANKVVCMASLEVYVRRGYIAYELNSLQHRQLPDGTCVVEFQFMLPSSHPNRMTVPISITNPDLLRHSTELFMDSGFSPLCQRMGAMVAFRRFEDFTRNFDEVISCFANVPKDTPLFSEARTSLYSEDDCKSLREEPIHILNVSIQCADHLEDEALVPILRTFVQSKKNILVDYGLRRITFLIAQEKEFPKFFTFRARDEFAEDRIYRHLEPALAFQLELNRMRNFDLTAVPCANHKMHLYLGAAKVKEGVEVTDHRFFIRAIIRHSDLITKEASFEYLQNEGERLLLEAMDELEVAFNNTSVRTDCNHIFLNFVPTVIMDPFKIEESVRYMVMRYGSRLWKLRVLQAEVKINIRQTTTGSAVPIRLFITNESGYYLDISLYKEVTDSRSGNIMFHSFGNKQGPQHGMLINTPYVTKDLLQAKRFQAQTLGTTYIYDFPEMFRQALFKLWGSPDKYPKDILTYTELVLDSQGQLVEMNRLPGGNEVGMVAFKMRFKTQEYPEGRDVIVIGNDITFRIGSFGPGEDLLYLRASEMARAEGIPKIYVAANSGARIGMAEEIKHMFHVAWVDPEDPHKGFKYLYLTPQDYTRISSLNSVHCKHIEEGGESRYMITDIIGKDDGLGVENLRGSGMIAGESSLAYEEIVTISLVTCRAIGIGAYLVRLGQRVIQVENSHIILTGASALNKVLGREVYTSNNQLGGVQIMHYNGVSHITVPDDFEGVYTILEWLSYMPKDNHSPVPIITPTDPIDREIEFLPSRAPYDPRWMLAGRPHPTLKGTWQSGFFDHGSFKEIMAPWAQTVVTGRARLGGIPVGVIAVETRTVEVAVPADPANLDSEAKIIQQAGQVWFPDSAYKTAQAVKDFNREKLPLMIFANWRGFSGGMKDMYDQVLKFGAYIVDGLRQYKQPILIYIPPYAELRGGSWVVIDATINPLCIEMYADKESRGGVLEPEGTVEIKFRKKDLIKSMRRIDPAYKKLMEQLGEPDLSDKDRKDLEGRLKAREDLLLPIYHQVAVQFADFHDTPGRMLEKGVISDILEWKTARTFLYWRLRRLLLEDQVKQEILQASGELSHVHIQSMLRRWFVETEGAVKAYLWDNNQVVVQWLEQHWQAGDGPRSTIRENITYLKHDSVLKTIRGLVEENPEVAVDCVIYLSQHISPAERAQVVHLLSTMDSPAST

| Compound | IC90 (Rhizoctonia solani (Rs); Table 4b) [µg/mL] | IC90 (Botrtyis cinerea (Bc); Table 4b) [µg/mL] | IC90 ([1]; Table 4b) [µg/mL] | IC90 (Diplodia maydis (Dm); Table 4b) [µg/mL] | IC90 ([2]; Table 4b) [µg/mL] | IC90 ([3]; Table 4b) [µg/mL] | IC90 ([4]; Table 4b) [µg/mL] | IC90 (Septoria tritici (St); Table 4b) [µg/mL] | pIC50 (hACC2; Table 2b (additional results)) | IC90 (Rhizoctonia solani (Rs); Table 4a) [µg/mL] | IC90 (Botrtyis cinerea (Bc); Table 4a) [µg/mL] | IC90 ([1]; Table 4a) [µg/mL] | IC90 (Diplodia maydis (Dm); Table 4a) [µg/mL] | IC90 ([2]; Table 4a) [µg/mL] | IC90 ([3]; Table 4a) [µg/mL] | IC90 ([4]; Table 4a) [µg/mL] | IC90 (Septoria tritici (St); Table 4a) [µg/mL] | pIC50 (hACC2; Table 2a) |
| --- | --- | --- | --- | --- | --- | --- | --- | --- | --- | --- | --- | --- | --- | --- | --- | --- | --- | --- |
| CCOC(=O)c1sc2c(c1C)c(=O)n([C@@H](C)C(=O)N(C)C(C)C)c(=O)n2C[C@H](OCCC#N)c1cc(F)ccc1OC [Compound I-28, ethyl 1-((R)-2-(2-cyanoethoxy)-2-(5-fluoro-2-methoxy-phenyl)-ethyl)-3-((S)-1-(isopropyl(methyl)amino)-1-oxopropan-2-yl)-5-methyl-2,4-dioxo-1,2,3,4-tetrahydrothieno[2,3-d]pyrimidine-6-carboxylate] | 0.08 (≈ 0.133 µM) | 2 (≈ 3.32 µM) | ≥ 50 | 10 (≈ 16.6 µM) | 0.4 (≈ 0.664 µM) | 0.4 (≈ 0.664 µM) | 10 (≈ 16.6 µM) | 10 (≈ 16.6 µM) | 8.00 to 8.52 | – | – | – | – | – | – | – | – | – |
| CCOC(=O)c1sc2c(c1C)c(=O)n([C@H](C)C(=O)N(C)C(C)C)c(=O)n2C[C@H](OCCC#N)c1cc(F)ccc1OC [Compound I-27, ethyl 1-((R)-2-(2-cyanoethoxy)-2-(5-fluoro-2-methoxy-phenyl)ethyl)-3-((R)-1-(isopropyl(methyl)amino)-1-oxopropan-2-yl)-5-methyl-2,4-dioxo-1,2,3,4-tetrahydrothieno[2,3-d]pyrimidine-6-carboxylate] | 2 (≈ 3.32 µM) | 2 (≈ 3.32 µM) | ≥ 50 | 2 (≈ 3.32 µM) | 0.4 (≈ 0.664 µM) | 0.08 (≈ 0.133 µM) | 2 (≈ 3.32 µM) | ≥ 50 | 8.52 to 9.52 | – | – | – | – | – | – | – | – | – |
| CCOC(=O)c1sc2c(c1C)c(=O)n(C(C)(C)C(=O)NC(C)C)c(=O)n2C[C@H](OCCS(C)(=O)=O)c1cc(F)ccc1OC [Compound I-36, ethyl (R)-1-(2-(5-fluoro-2-methoxyphenyl)-2-(2-(methylsulfonyl)ethoxy)ethyl)-3-(1-(isopropylamino)-2-methyl-1-oxopropan-2-yl)-5-methyl-2,4-dioxo-1,2,3,4-tetrahydrothieno[2,3-d]pyrimidine-6-carboxylate] | 0.4 (≈ 0.61 µM) | 2 (≈ 3.05 µM) | ≥ 50 | 2 (≈ 3.05 µM) | 2 (≈ 3.05 µM) | 0.4 (≈ 0.61 µM) | 0.4 (≈ 0.61 µM) | ≥ 50 | 7.40 to 8.00 | – | – | – | – | – | – | – | – | – |
| CCNC(=O)C(C)(C)n1c(=O)c2c(C)c(C(=O)OCC)sc2n(C[C@H](OCCC#N)c2cc(F)ccc2OC)c1=O [Compound I-29, (R)-ethyl 1-(2-(2-cyanoethoxy)-2-(5-fluoro-2-methoxy-phenyl)ethyl)-3-(1-(ethylamino)-2-methyl-1-oxopropan-2-yl)-5-methyl-2,4-dioxo-1,2,3,4-tetrahydrothieno[2,3-d]pyrimidine-6-carboxylate] | 0.08 (≈ 0.136 µM) | 2 (≈ 3.4 µM) | ≥ 50 | 0.4 (≈ 0.68 µM) | 2 (≈ 3.4 µM) | 0.08 (≈ 0.136 µM) | 0.4 (≈ 0.68 µM) | 10 (≈ 17 µM) | 8.00 to 8.52 | – | – | – | – | – | – | – | – | – |
| CCOC(=O)c1sc2c(c1C)c(=O)n(C(C)(C)C(=O)NC(C)C)c(=O)n2C[C@H](OCCC#N)c1cc(F)ccc1OC [Compound I-15, (R)-ethyl 1-(2-(2-cyanoethoxy)-2-(5-fluoro-2-methoxy-phenyl)ethyl)-3-(1-(isopropylamino)-2-methyl-1-oxopropan-2-yl)-5-methyl-2,4-dioxo-1,2,3,4-tetrahydrothieno[2,3-d]pyrimidine-6-carboxylate] | 0.08 (≈ 0.133 µM) | 0.4 (≈ 0.664 µM) | 10 (≈ 16.6 µM) | 0.08 (≈ 0.133 µM) | 0.4 (≈ 0.664 µM) | 0.08 (≈ 0.133 µM) | 0.08 (≈ 0.133 µM) | 10 (≈ 16.6 µM) | 8.00 to 8.52 | 0.08 (≈ 0.133 µM) | 0.4 (≈ 0.664 µM) | ≥ 50 | 0.08 (≈ 0.133 µM) | 0.4 (≈ 0.664 µM) | 0.08 (≈ 0.133 µM) | 0.08 (≈ 0.133 µM) | ≥ 50 | 7.40 to 8.00 |
| CCOC(=O)c1sc2c(c1C)c(=O)n(C(C)(C)C(N)=O)c(=O)n2C[C@H](OCCOC)c1cc(F)ccc1OC [Compound I-10, (R)-ethyl 3-(1-amino-2-methyl-1-oxopropan-2-yl)-1-(2-(5-fluoro-2-methoxyphenyl)-2-(2-methoxyethoxy)ethyl)-5-methyl-2,4-dioxo-1,2,3,4-tetrahydrothieno[2,3-d]pyrimidine-6-carboxylate] | ≥ 50 | ≥ 50 | ≥ 50 | ≥ 50 | ≥ 50 | 10 (≈ 17.7 µM) | ≥ 50 | ≥ 50 | ≤ 7.40 | ≥ 50 | ≥ 50 | ≥ 50 | ≥ 50 | ≥ 50 | ≥ 50 | ≥ 50 | ≥ 50 | ≤ 7.40 |
